These results are taken from US10711008B2, “Indoline analogs and uses thereof” (Oncternal Therapeutics, Inc., priority 2016, dated 2020).

What all share (assay type): cell-based, human
Details in all cases: 3 days with compound at 0.02 to 5 μM, CCK-8, A450, 50% inhibition of cell viability

The subject of test [1] is TC71 (Type 1, 7/6) cells (Ewing Sarcoma cell line). Put plainly: Cell growth inhibition, modified tetrazolium salt assay (CCK-8 kit), TC71 cells. How it is done:
(§1) A modified tetrazolium salt assay using the CCK-8 kit (Sigma-Aldrich; St Louis, Mo.) was used to measure the inhibition of human tumor cell growth. Tumor cells (5000-7500 per well) were added to 96 well plates and allowed to attach for 4-5 hours. Compounds were serially diluted and added in triplicate at a concentration of 0.02 to 5 μM. DMSO was included as a vehicle control. Cells were incubated in the presence of compound for 3 days. After incubation CCK-8 reagent was added to each well and incubated for 2-4 hours. Viable cells were quantitated spectrophotometrically at a wavelength of 450 nm. Percent viability of each sample was calculated from the A450 values as follows: % viability=(A450 nm sample/A450 nm DMSO-treated cells×100). The IC50 was defined as the concentration that gave rise to 50% inhibition of cell viability. IC50 activities of particular compounds were determined using SKES (type 2, 7/5) cells (Ewing Sarcoma cell line), TC71 (Type 1, 7/6) cells (Ewing Sarcoma cell line), and A4573 (Type 3, 10/6) cells (Ewing Sarcoma cell line). […] TK-216 is a YK-4-279 clinical derivative that is in phase 1 for patients with relapsed or refractory Ewing sarcoma. Preclinical testing has been conducted for TK-216 in lymphoma models. Test results for the analogs were compared to those for TK-216 and YK-4-279.
In general terms: Tetrazolium dyes change colour on reduction, which living cells bring about.

The test system of test [2] is SKES (type 2, 7/5) cells (Ewing Sarcoma cell line). Put plainly: Cell growth inhibition, modified tetrazolium salt assay (CCK-8 kit), SKES cells. As for the experimental part:
as §1

Test [3] has as its system A4573 (Type 3, 10/6) cells (Ewing Sarcoma cell line). Put plainly: Cell growth inhibition, modified tetrazolium salt assay (CCK-8 kit), A4573 cells. How it is done:
as §1

Consider `O=C(CC1(O)C(=O)Nc2c(Cl)ccc(Cl)c21)c1ccc(C2(F)CC2)cc1` (stereo not drawn) [TK Analog 2], for which the IC50 is below 5 µM in test [1] (Homo sapiens, TC-71, 72 h); below 5 µM in test [2] (Homo sapiens, 72 h); below 5 µM in test [3] (Homo sapiens, 72 h).
With `NC1(c2ccc(C(=O)CC3(O)C(=O)Nc4c(Cl)ccc(Cl)c43)cc2)CC1` (stereo not drawn) [TK Analog 3], the concentration for half-maximal inhibition (IC50) in test [1] (Homo sapiens, TC-71, 72 h) is above 5 µM; in test [2] (Homo sapiens, 72 h) it was below 5 µM; in test [3] (Homo sapiens, 72 h), above 5 µM.
`O=C(CC1(O)C(=O)Nc2c(Cl)ccc(Cl)c21)c1ccc(OC(F)F)cc1` (stereo not drawn) [TK Analog 4]: the half-inhibitory concentration (IC50) in test [1] (Homo sapiens, TC-71, 72 h) was above 5 µM; in test [2] (Homo sapiens, 72 h), above 5 µM; in test [3] (Homo sapiens, 72 h), above 5 µM.
As for `C#Cc1ccc(C(=O)CC2(O)C(=O)Nc3c(Cl)ccc(Cl)c32)cc1` (stereo not drawn) [TK Analog 5], the IC50 in test [1] (Homo sapiens, TC-71, 72 h) is above 5 µM; in test [2] (Homo sapiens, 72 h) it was above 5 µM; in test [3] (Homo sapiens, 72 h) it was above 5 µM.
As for `COc1ccc(C(=O)CC2C(=O)Nc3c(Cl)ccc(Cl)c32)cc1` (stereo not drawn) [TK Analog 6], the IC50 in test [1] (Homo sapiens, TC-71, 72 h) was below 5 µM; in test [2] (Homo sapiens, 72 h) it was below 5 µM; in test [3] (Homo sapiens, 72 h), below 5 µM.
For the molecule `COc1ccc(C(=O)CC2(F)C(=O)Nc3c(Cl)ccc(Cl)c32)cc1` (stereo not drawn) [TK Analog 7], the IC50 in test [1] (Homo sapiens, TC-71, 72 h) was below 5 µM; in test [2] (Homo sapiens, 72 h) it was below 5 µM; in test [3] (Homo sapiens, 72 h), below 5 µM.
Turning to `COc1ccc(C(=O)CC2(N)C(=O)Nc3c(Cl)ccc(Cl)c32)cc1` (stereo not drawn) [TK Analog 8], the half-maximal inhibitory concentration (IC50) was above 5 µM in test [1] (Homo sapiens, TC-71, 72 h); below 5 µM in test [2] (Homo sapiens, 72 h); above 5 µM in test [3] (Homo sapiens, 72 h).
As for `O=C(CC1(O)C(=O)Nc2c(Cl)ccc(Cl)c21)c1ccc2occc2c1` (stereo not drawn) [TK Analog 9], the half-maximal inhibitory concentration (IC50) in test [1] (Homo sapiens, TC-71, 72 h) was above 5 µM; in test [2] (Homo sapiens, 72 h), below 5 µM; in test [3] (Homo sapiens, 72 h) it was above 5 µM.
On to `O=C(CC1(O)C(=O)Nc2c(Cl)ccc(Cl)c21)c1ccc2sccc2c1` (stereo not drawn) [TK Analog 10], for which the IC50 is below 5 µM in test [1] (Homo sapiens, TC-71, 72 h); below 5 µM in test [2] (Homo sapiens, 72 h); below 5 µM in test [3] (Homo sapiens, 72 h).
As to `O=C(CC1(O)C(=O)Nc2c(Cl)ccc(Cl)c21)c1ccc2[nH]ccc2c1` (stereo not drawn) [TK Analog 11], the concentration for half-maximal inhibition (IC50) in test [1] (Homo sapiens, TC-71, 72 h) was below 5 µM; in test [2] (Homo sapiens, 72 h), below 5 µM; in test [3] (Homo sapiens, 72 h) it was below 5 µM.
Take `CNC(=O)Oc1ccc(C(=O)CC2(O)C(=O)Nc3c(Cl)ccc(Cl)c32)cc1` (stereo not drawn) [TK Analog 13]: the IC50 in test [1] (Homo sapiens, TC-71, 72 h) is above 5 µM; in test [2] (Homo sapiens, 72 h), above 5 µM; in test [3] (Homo sapiens, 72 h) it was above 5 µM.
On to `CN(C)c1ccc(-c2cc3c(nn2)[nH]c2c(Cl)ccc(Cl)c23)cc1` [TK Analog 14], for which the IC50 in test [1] (Homo sapiens, TC-71, 72 h) was above 5 µM; in test [2] (Homo sapiens, 72 h), above 5 µM; in test [3] (Homo sapiens, 72 h) it was above 5 µM.
As for `COc1ccc(C(=O)CC2(O)C(=O)Nc3c(Cl)ccc(Cl)c32)c(F)c1` (stereo not drawn) [TK Analog 15A], the IC50 in test [1] (Homo sapiens, TC-71, 72 h) was below 5 µM; in test [2] (Homo sapiens, 72 h) it was below 5 µM; in test [3] (Homo sapiens, 72 h), below 5 µM.
Turning to `COc1ccc2nn(CC3(O)C(=O)Nc4c(Cl)ccc(Cl)c43)cc2c1` (stereo not drawn) [TK Analog 16A], the concentration for half-maximal inhibition (IC50) in test [1] (Homo sapiens, TC-71, 72 h) was above 5 µM; in test [2] (Homo sapiens, 72 h) it was above 5 µM; in test [3] (Homo sapiens, 72 h), above 5 µM.
On to `COc1ccc2c(cnn2CC2(O)C(=O)Nc3c(Cl)ccc(Cl)c32)c1` (stereo not drawn) [TK Analog 16], for which the IC50 in test [1] (Homo sapiens, TC-71, 72 h) is above 5 µM; in test [2] (Homo sapiens, 72 h), below 5 µM; in test [3] (Homo sapiens, 72 h), above 5 µM.
For the molecule `COc1ccc2c(CC3(O)C(=O)Nc4c(Cl)ccc(Cl)c43)noc2c1` (stereo not drawn) [TK Analog 17], the IC50 is above 5 µM in test [1] (Homo sapiens, TC-71, 72 h); above 5 µM in test [2] (Homo sapiens, 72 h); above 5 µM in test [3] (Homo sapiens, 72 h).
With `COc1ccc2c(CC3(O)C(=O)Nc4c(Cl)ccc(Cl)c43)nsc2c1` (stereo not drawn) [TK Analog 18], the concentration for half-maximal inhibition (IC50) in test [1] (Homo sapiens, TC-71, 72 h) is above 5 µM; in test [2] (Homo sapiens, 72 h), below 5 µM; in test [3] (Homo sapiens, 72 h), above 5 µM.
Turning to `O=C(CC1(O)C(=O)Nc2c(Cl)ccc(Cl)c21)c1ccc2ccccc2c1` (stereo not drawn) [TK Analog 19], the IC50 was below 5 µM in test [1] (Homo sapiens, TC-71, 72 h); below 5 µM in test [2] (Homo sapiens, 72 h); below 5 µM in test [3] (Homo sapiens, 72 h).
For `O=C(CC1(O)C(=O)Nc2c(Cl)ccc(Cl)c21)c1ccc(C2CC2)nc1` (stereo not drawn) [TK Analog 20], the 50% inhibitory concentration (IC50) in test [1] (Homo sapiens, TC-71, 72 h) was above 5 µM; in test [2] (Homo sapiens, 72 h), above 5 µM; in test [3] (Homo sapiens, 72 h), above 5 µM.
Take `O=C(CC1(O)C(=O)Nc2c(Cl)ccc(Cl)c21)c1ccc(C2CC2)cn1` (stereo not drawn) [TK Analog 21]: the half-inhibitory concentration (IC50) is above 5 µM in test [1] (Homo sapiens, TC-71, 72 h); above 5 µM in test [2] (Homo sapiens, 72 h); above 5 µM in test [3] (Homo sapiens, 72 h).
Consider `O=C(CC1(O)C(=O)Nc2c(Cl)ccc(Cl)c21)c1ccc(C2CC2)s1` (stereo not drawn) [TK Analog 22], for which the concentration for half-maximal inhibition (IC50) was above 5 µM in test [1] (Homo sapiens, TC-71, 72 h); below 5 µM in test [2] (Homo sapiens, 72 h); above 5 µM in test [3] (Homo sapiens, 72 h).
For the molecule `O=C(CC1(O)C(=O)Nc2c(Cl)ccc(Cl)c21)c1cc(C2CC2)cs1` (stereo not drawn) [TK Analog 23], the 50% inhibitory concentration (IC50) was above 5 µM in test [1] (Homo sapiens, TC-71, 72 h); above 5 µM in test [2] (Homo sapiens, 72 h); above 5 µM in test [3] (Homo sapiens, 72 h).
`O=C(CC1(O)C(=O)Nc2c(Cl)ccc(Cl)c21)c1csc(C2CC2)c1` (stereo not drawn) [TK Analog 24]: the IC50 in test [1] (Homo sapiens, TC-71, 72 h) was above 5 µM; in test [2] (Homo sapiens, 72 h), above 5 µM; in test [3] (Homo sapiens, 72 h), above 5 µM.
As for `O=C(CC1(O)C(=O)Nc2c(Cl)ccc(Cl)c21)c1ccc(C2CC2)cc1` (stereo not drawn) [TK-216-2, reference compound], the IC50 in test [1], in test [2] and in test [3] was below 5 µM throughout.
On to `COc1ccc(C(=O)CC2(O)C(=O)Nc3c(Cl)ccc(Cl)c32)cc1` (stereo not drawn) [YK-4-279, 4,7-dichloro-3-hydroxy-3-(2-(4-methoxyphenyl)-2-oxoethyl)indolin-2-one, reference compound], for which the IC50 in test [1] (Homo sapiens, TC-71, 72 h) is below 5 µM; in test [2] (Homo sapiens, 72 h), below 5 µM; in test [3] (Homo sapiens, 72 h), below 5 µM.

The IC50 is the concentration needed to halve the response being measured.
